Reference: PubChem BioAssay (NCI)
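Assay format: 96-well plates, 48-hour exposure. TGI is the concentration that stops growth completely.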

Legend:
Assay in all cases: NCI anticancer screen, dose series, 48 h
NCI/ADR-RES ovarian = system: NCI/ADR-RES ovarian
SF-539 CNS = system: SF-539 CNS
UACC-257 melanoma = system: UACC-257 melanoma
U251 CNS = system: U251 CNS
HT29 colon = system: HT29 colon
RPMI-8226 leukemia = system: RPMI-8226 leukemia
NCI-H522 lung = system: NCI-H522 lung
RXF 393 renal = system: RXF 393 renal
NCI-H23 lung = system: NCI-H23 lung
OVCAR-5 ovarian = system: OVCAR-5 ovarian
HL-60(TB) leukemia = system: HL-60(TB) leukemia
EKVX NSCLC = system: EKVX NSCLC
OVCAR-4 ovarian = system: OVCAR-4 ovarian
MDA-MB-435 = system: MDA-MB-435
ACHN renal = system: ACHN renal
MCF7 breast = system: MCF7 breast
HOP-62 NSCLC = system: HOP-62 NSCLC
OVCAR-8 ovarian = system: OVCAR-8 ovarian
SK-OV-3 ovarian = system: SK-OV-3 ovarian
A498 renal = system: A498 renal

Row | Compound | TGI (NCI/ADR-RES ovarian) | TGI (SF-539 CNS) | TGI (UACC-257 melanoma) | TGI (U251 CNS) | TGI (HT29 colon) | TGI (RPMI-8226 leukemia) | TGI (NCI-H522 lung) | TGI (RXF 393 renal) | TGI (NCI-H23 lung) | TGI (OVCAR-5 ovarian) | TGI (HL-60(TB) leukemia) | TGI (EKVX NSCLC) | TGI (OVCAR-4 ovarian) | TGI (MDA-MB-435) | TGI (ACHN renal) | TGI (MCF7 breast) | TGI (HOP-62 NSCLC) | TGI (OVCAR-8 ovarian) | TGI (SK-OV-3 ovarian) | TGI (A498 renal)
1 | C/C=C1\CC2C(=O)CCC2C2c3ccccc3OC12 (stereo not drawn) | > 100 µM | > 100 µM | > 100 µM | > 100 µM | > 100 µM | > 100 µM | > 100 µM | > 100 µM | > 100 µM | > 100 µM | > 100 µM | > 100 µM | > 100 µM | > 100 µM | > 100 µM | > 100 µM | > 100 µM | > 100 µM | > 100 µM | –
2 | O=C(c1nc2ccccc2[nH]c1=O)C(O)c1ccco1 (stereo not drawn) | – | > 100 µM | > 100 µM | > 100 µM | > 100 µM | > 100 µM | > 100 µM | > 100 µM | > 100 µM | > 100 µM | > 100 µM | > 100 µM | > 100 µM | – | > 100 µM | – | > 100 µM | > 100 µM | > 100 µM | –
3 | C/C(CC(=O)Nc1cc(C)ccc1C)=N/N=C(N)N | – | > 100 µM | > 100 µM | > 100 µM | > 100 µM | > 100 µM | > 100 µM | > 100 µM | > 100 µM | > 100 µM | > 100 µM | > 100 µM | – | – | > 100 µM | – | > 100 µM | > 100 µM | > 100 µM | > 100 µM
4 | CCOP12(OCC)NC(=O)OC1(C(F)(F)F)c1ccccc1O2 (stereo not drawn) | – | > 100 µM | > 100 µM | – | > 100 µM | – | > 100 µM | > 100 µM | > 100 µM | – | > 100 µM | – | > 100 µM | – | > 100 µM | – | – | > 100 µM | > 100 µM | –
5 | COc1ccc(-c2cc(-c3ccc(O)cc3O)c(C#N)c(=O)[nH]2)cc1 | 46.2 µM | 34.7 µM | 70.8 µM | 41 µM | 34.6 µM | 43.5 µM | – | 35.4 µM | 71.1 µM | 43.3 µM | 65.4 µM | 41.6 µM | 60 µM | 36.4 µM | > 100 µM | > 100 µM | 41.1 µM | 85.2 µM | 33.8 µM | –
6 | COC(=O)[C@H](Cc1c[nH]c2ccccc12)NP(=O)(O)OC[C@H]1O[C@@H](n2cc(C)c(=O)[nH]c2=O)C[C@@H]1N=[N+]=[N-] | > 100 µM | – | > 100 µM | > 100 µM | > 100 µM | > 100 µM | > 100 µM | > 100 µM | > 100 µM | > 100 µM | > 100 µM | > 100 µM | > 100 µM | > 100 µM | – | > 100 µM | > 100 µM | > 100 µM | > 100 µM | –
7 | O=C1CC2(CCC3=C(O2)c2ccccc2NC(=O)C3)C(=O)c2ccccc2N1 (stereo not drawn) | – | > 100 µM | – | > 100 µM | > 100 µM | > 100 µM | > 100 µM | > 100 µM | > 100 µM | > 100 µM | > 100 µM | > 100 µM | > 100 µM | – | > 100 µM | – | > 100 µM | > 100 µM | – | –
8 | COc1cc(/C=N\c2nc(-c3ccc(NS(=O)(=O)c4ccc(Cl)c(OC)c4)cc3)cs2)ccc1O | > 100 µM | > 100 µM | – | – | > 100 µM | 74.2 µM | 60.9 µM | 80.8 µM | 88.8 µM | > 100 µM | 74 µM | > 100 µM | > 100 µM | > 100 µM | > 100 µM | 56.2 µM | > 100 µM | > 100 µM | > 100 µM | –
9 | C=CCN1COc2c(cc3c4c(cccc24)C(=O)O3)C1 | – | – | 60.7 µM | > 100 µM | 51.8 µM | 97.1 µM | 28.4 µM | > 10 µM | 47 µM | > 100 µM | 50.3 µM | 92 µM | > 100 µM | – | > 10 µM | – | > 100 µM | > 100 µM | > 100 µM | 52.1 µM
10 | O=C1NC(=O)C(C(=O)C(=O)Nc2ccc(Cl)cc2Cl)C(=O)N1 | – | – | > 100 µM | > 100 µM | – | > 100 µM | – | – | – | > 100 µM | > 100 µM | > 100 µM | > 100 µM | – | > 100 µM | – | > 100 µM | > 100 µM | > 100 µM | > 100 µM
11 | O=c1c2ccccc2nc2n1-c1ccccc1SC2 | – | > 100 µM | > 100 µM | > 100 µM | > 100 µM | 71.9 µM | 70.8 µM | > 100 µM | > 100 µM | > 100 µM | – | > 100 µM | > 100 µM | – | > 100 µM | – | > 100 µM | > 100 µM | > 100 µM | > 100 µM
12 | Clc1ccc(CCn2cncn2)cc1 | – | > 100 µM | > 100 µM | > 100 µM | > 100 µM | > 100 µM | > 100 µM | > 100 µM | > 100 µM | > 100 µM | > 100 µM | – | > 100 µM | – | > 100 µM | – | > 100 µM | > 100 µM | > 100 µM | > 100 µM
13 | N#CC1=C(c2ccccc2)C(=C2Nc3ccccc3N2)C2S/C(=C\c3ccccc3)C(=O)N2C1=N (stereo not drawn) | – | 3.35 µM | 15.7 µM | 5.54 µM | 14.3 µM | – | 3.52 µM | – | 4.49 µM | 5.84 µM | 6.53 µM | 5.2 µM | 6.4 µM | – | 10.1 µM | – | 5.1 µM | 5.19 µM | 3.62 µM | 7.73 µM
14 | O=C1C=CC2(C=C1)CCNC1=C2C(=O)c2ccccc2C1=O | – | > 100 µM | > 100 µM | > 100 µM | > 100 µM | > 100 µM | > 100 µM | > 100 µM | > 100 µM | > 100 µM | > 100 µM | > 100 µM | > 100 µM | – | > 100 µM | – | > 100 µM | > 100 µM | > 100 µM | > 100 µM
15 | Cc1ccc(C(c2c(O)c3ccccc3n(-c3ccccc3)c2=O)c2c(O)c3ccccc3n(-c3ccccc3)c2=O)cc1 | – | > 100 µM | – | > 100 µM | – | > 100 µM | > 100 µM | > 100 µM | > 100 µM | > 100 µM | – | > 100 µM | > 100 µM | – | > 100 µM | – | > 100 µM | – | – | –
16 | COc1ccc(-c2c3c(n(C4OC(COC(C)=O)C(OC(C)=O)C(OC(C)=O)C4OC(C)=O)c(=S)c2C#N)CCC3)cc1 (stereo not drawn) | > 100 µM | > 100 µM | > 100 µM | > 100 µM | > 100 µM | > 100 µM | – | > 100 µM | > 100 µM | > 100 µM | > 100 µM | – | > 100 µM | > 100 µM | > 100 µM | > 100 µM | > 100 µM | – | > 100 µM | –
17 | CCN(CC)CCN(C(=Nc1ccccc1)N1CCCCC1)c1ccccc1 | – | 40 µM | 34.7 µM | 43.3 µM | 30.9 µM | 8.71 µM | 13.2 µM | 41.1 µM | 25.6 µM | – | 6.95 µM | > 100 µM | 57.8 µM | 20.6 µM | – | 56.7 µM | 22.2 µM | 29.5 µM | 24.2 µM | –
18 | NC(=O)/C(=N\NC(=O)C[n+]1ccccc1)C1NC(=O)NC1=O (stereo not drawn) | – | > 100 µM | > 100 µM | – | > 100 µM | > 100 µM | – | > 100 µM | > 100 µM | > 100 µM | > 100 µM | > 100 µM | > 100 µM | – | > 100 µM | – | > 100 µM | > 100 µM | > 100 µM | > 100 µM
19 | CC1=NNC(=O)C1C1CC(c2c[nH]c3ccccc23)=NN(C(N)=O)C1=O (stereo not drawn) | > 100 µM | > 100 µM | > 100 µM | > 100 µM | > 100 µM | > 100 µM | > 100 µM | > 100 µM | > 100 µM | > 100 µM | > 100 µM | > 100 µM | – | > 100 µM | > 100 µM | – | > 100 µM | > 100 µM | > 100 µM | > 100 µM
20 | O=C(/C=C/c1ccc(C(F)(F)F)cc1)c1c([O-])on[n+]1-c1ccccc1 | 4.18 µM | 3.98 µM | 6.93 µM | – | 2.25 µM | – | – | 2.68 µM | 10 µM | 8.06 µM | 0.459 µM | 5.83 µM | 48.9 µM | – | 2.94 µM | > 34.5 µM | 13 µM | 5.38 µM | > 63.4 µM | 14.8 µM
21 | Cc1nc(N2N=C(c3ccc(Cl)cc3)CCC2=O)sc1[N+](=O)[O-] | – | > 100 µM | > 100 µM | > 100 µM | > 100 µM | > 100 µM | > 100 µM | > 100 µM | > 100 µM | – | > 100 µM | > 100 µM | > 100 µM | – | > 100 µM | – | > 100 µM | > 100 µM | > 100 µM | –
22 | CCOC(=O)C(C(=O)OCC)c1ccc([N+](=O)[O-])o1 | – | 35.9 µM | 28.1 µM | 36.8 µM | 31.2 µM | 23.6 µM | 3.26 µM | 24.9 µM | 32.3 µM | 32.1 µM | > 22.3 µM | 35.4 µM | 32.4 µM | – | 22.6 µM | – | > 75.5 µM | 16.1 µM | > 100 µM | –
